This is an account of results in patent publication US9506068B2, “Pain treatment using ERK2 inhibitors” (Cornell University, priority 2008, dated 2016).

“Also recorded” adds a separate entry of the source.

Data set [1] relates to ERK2. Briefly: Western blot of spinal cord dorsal horn: ERK2 and pERK2. The data set is classed as in vivo, mouse. To be noted: compared to animals that did not receive intraparenchymal injection of a vector. The protocol:
(§1) The viral vectors, ERK2-5, 2-7, 2-8 and MM were micro-injected into the spinal cord dorsal horn (SCDH) as described by South et al. (South et al., 2003). The mice were anesthetized with ketamine/xylazine. A laminectomy was performed to remove part of the dorsal L2 and L3 spinous process and the lumbar area of spinal cord was exposed for intraparenchymal injection (IPI). Three unilateral injections of 1 μl (1-3×10^9 viral particles/μl) were administered 0.5-0.7 mm apart, at a depth of 0.3 mm from the dorsal border and 0.5 mm from the midline, using a glass pipette with a 40-μm-diameter tip attached to a 5 μl Hamilton syringe. […]
(§2) Animals were deeply anesthetized by isoflurane, decapitated and the lumbar spinal cord dorsal horn at the level of L4-L6 were rapidly dissected. […] The protein level of each sample was measured by the BioRad DC assay. […]
(§3) Membranes were incubated with rabbit anti-pERK1/2 antibody (1:1000; 07-362; Cell Signaling Technology, Inc.) in blocking solution overnight at 4° C., washed in TBS with 0.1% Tween-20 (TBST), then incubated with HRP-conjugated anti-rabbit IgG (1:1000, Pierce Biotechnology, Inc., Rockford, Ill.) in blocking solution for 1 hr. […] Ratios of intensity of pERK1/2 or ERK1/2 to β-actin were calculated, normalized to the control samples and subject to statistical analysis. […]
(In general: Immunoblotting shows a protein as a band on a membrane.)

Data set [2] deals with ERK2 mRNA. Put plainly: Non-radioactive in situ hybridization of ERK2 mRNA in spinal cord dorsal horn after intraparenchymal vector injection. The format is in vivo, mouse. As to conditions: 3 weeks after intraparenchymal injection; ipsilateral vs contralateral; listed as MM. Here is the method:
as §1, with “syringe. The syringe was mounted on a microinjector (David Kopf Instruments, Tujunga, Calif.) attached to a stereotaxic unit (David Kopf Instruments). After the injection, the overlying muscles were closed with 5-0 chromic gut and the skins were closed with wound clips.” for “syringe.”
ERK2 mRNA expression in the SCDH was detected by non-radioactive in situ hybridization as described by (Garraway et al., 2007). […]
(§4) Fluorescent IHC images were captured by a Zeiss LSM 510 laser scanning confocal microscope. […] Quantitative analysis was performed by a blinded observer using Metamorph software (Universal Imaging, Downingtown, Pa.) as described previously (Garraway et al., 2007). […]

Data set [3] concerns spinal cord dorsal horn (SCDH). As to conditions: mouse, in vivo.
Method: Mice were anesthetized with pentobarbital and then perfused transcardially with 4% paraformaldehyde (PFA) in phosphate buffered saline (PBS) with 1 mM NaF. Fifty mL of fixative was perfused over 5 min by using a peristaltic pump. The spinal cord was dissected and placed in 4% PFA for 1 hr before being transferred to 30% sucrose for cryoprotection for 72 hr. Lumbar spinal cord cryosections of 20-μm thick were obtained from a cryostat (Leica, Bannockburn, Ill.) for IHC and in situ hybridization.
For IHC, the spinal cord sections were incubated in blocking solution (3% normal goat serum, 0.1% Triton X-100 in Tris buffered saline) for 30 min. After washing in Tris buffered saline (TBS), sections were incubated with one or two of the following primary antibodies: rabbit anti-GFP (1:1000; Invitrogen-Molecular Probes Inc, Eugene, Oreg.), rabbit anti-phospho-ERK1/2 (1:1000; Cell Signaling Technology, Inc., Danvers, Mass.), mouse anti-NeuN (1:400; Millipore-Chemicon, Bedford, Mass.), rabbit anti-c-fos (1:2000, Santa Cruz Biotechnology, Santa Cruz, Calif.), rabbit anti-Dynorphin A(1:2000, Bachem, San Carlos, Calif.), mouse anti-GFAP (1:2000; Millipore-Chemicon) and rat anti-OX42 (1:1000, BD Biosciences, San Diego, Calif.) overnight in blocking solution at 4° C. […]
Data set [4] has as its system spinal cord dorsal horn (SCDH). Briefly: GFP immunolabeling after rAAV vector injection (extent and cell type of transduction). The format is in vivo, mouse. As to conditions: confocal fluorescent immunohistochemistry; NeuN, GFAP, OX42 markers. Here is the method: The viral vectors, ERK2-5, 2-7, 2-8 and MM were micro-injected into the spinal cord dorsal horn (SCDH) as described by South et al. (South et al., 2003). The mice were anesthetized with ketamine/xylazine. A laminectomy was performed to remove part of the dorsal L2 and L3 spinous process and the lumbar area of spinal cord was exposed for intraparenchymal injection (IPI). Three unilateral injections of 1 μl (1-3×10^9 viral particles/μl) were administered 0.5-0.7 mm apart, at a depth of 0.3 mm from the dorsal border and 0.5 mm from the midline, using a glass pipette with a 40-μm-diameter tip attached to a 5 μl Hamilton syringe. The syringe was mounted on a microinjector (David Kopf Instruments, Tujunga, Calif.) attached to a stereotaxic unit (David Kopf Instruments). After the injection, the overlying muscles were closed with 5-0 chromic gut and the skins were closed with wound clips. Animals were allowed to recover for three weeks before undergoing behavioral tests, or sacrificed for histological and Western blot analysis.
as §4

Data set [5] relates to C57BL/6 mice. Put plainly: Acute mechanical stimulus threshold (von Frey). The data set is classed as in vivo, mouse. To be noted: before vs. at least 3 weeks after vector administration, no CFA. The protocol: Mechanical stimulus threshold to a non-noxious mechanical stimulus was determined by paw withdrawal to the application of a series of calibrated von Frey filaments to the surface of the hind paws. The animals were placed in a Plexiglas cage with mesh flooring suspended above the researcher and left to acclimate for 30 min. von Frey filaments were applied perpendicularly against the mid-plantar surface of the foot. The “up-down” method of Dixon (Chaplan et al., 1994) was used to determine the value at which paw withdrawal occurred 50% of the time, interpreted as the mechanical threshold.

The test system of data set [6] is C57BL/6 mice. Put plainly: Acute thermal paw withdrawal threshold. The data set is classed as in vivo, mouse. As to conditions: before vs. at least 3 weeks after vector administration, no CFA. The protocol: Thermal paw withdrawal threshold was assessed using a thermal nociceptive stimulus apparatus (Hargreaves et al., 1988). Prior to the test, the animals were allowed to acclimate for 30 min to the test chamber on a pre-heated glass plate maintained at 30° C. A radiant thermal stimulus (5.10 amps) was applied to the mid-plantar surface of the hind paw through the glass plate. The latency, in seconds, for the withdrawal of the paw from the heat source was determined automatically. If no response was elicited, the heat source was automatically shut off at 20 sec to prevent tissue injury. A minimum break of 5 min was allowed between each trial. Three to six trials were performed for each paw.

The subject of data set [7] is fusion mRNA of the ERK2 and the humanized Renilla luciferase (hRluc) gene. Briefly: psiCHECK Dual Luciferase Reporter Assay. The format is cell-based, mouse. To be noted: HEK 293 cells cotransfected with psiCHECK plasmid and rAAV plasmid; normalized to 100% of rAAV plasmid lacking shRNA (GFP); n=4. The source says:
FIGS. 1A-J illustrate expression of green fluorescent protein (GFP) and the knockdown of ERK2 mRNA in the mouse spinal cord dorsal horn (SCDH) at 3 weeks after the intraparenchymal injection of a neurotropic recombinant adeno-associated virus (rAAV) vector expressing ERK2 siRNA. […] Thus, the expression of GFP was not influenced by co-expression of the ERK2 siRNAs. […] Scale bar, 500 μm. In FIG. 1I, ERK2 mRNA expression was quantified from in situ images and plotted in the bar graph as the ratio of the integrated optical density of in situ labeling in the ipsilateral SCDH to that in the contralateral SCDH. Data are the mean±SEM (n=3). […] There was no significant difference in the ratio among the three active siRNA vectors. […] HEK 293 cells were cotransfected with the psiCHECK plasmid (which contains the ERK2-Renilla luciferase fusion gene and the firefly luciferase gene) and with a rAAV plasmid expressing a candidate ERK2 shRNA sequence. rAAV plasmids that yield active siRNAs reduce the expression of Renilla luciferase relative to firefly luciferase, leading to a reduction of the activity ratio. The assay results are the mean±SEM (n=4). The Renilla/firefly signal was normalized to a value of 100% from the results of a concurrent assay containing psiCHECK and a rAAV plasmid that lacked coding for a shRNA sequence (GFP). […]
A general note: Reporter assays use an easily measured gene product as a stand-in for the process of interest.

Data set [8] relates to C57BL/6 mice. Briefly: Motor function tests (surface righting, placing/stepping, grasping/climbing). To be noted: after intraparenchymal injection of vector. The format is in vivo, mouse. Here is the method:
All behavioral testing was conducted in groups of 10 mice per treatment by a blinded observer. Motor function tests were performed before mechanical stimulus threshold or thermal paw withdrawal threshold were measured (Garraway et al., 2007). No deficits in reflexes for surface righting, placing/stepping and grasping/climbing were found in animals treated with either the control rAAV vector or rAAV viral vectors.

Data set [9] deals with ERK1. Briefly: Western blot of spinal cord dorsal horn: ERK1 and pERK1. The data set is classed as in vivo, mouse. As to conditions: compared to animals that did not receive intraparenchymal injection of a vector. The protocol: as §1, §2, §3
The subject of data set [10] is ERK1. Briefly: Western blot of transfected HEK293 cells: ERK1. The format is cell-based, human. The source says:
Separate cultures of an immortalized cell line of human embryonic kidney cells (HEK293) were transfected with three active siRNAs directed against human ERK2. […] The sequences of the three human ERK2 siRNAs (#1, #2, and #3) and the control mismatch siRNA are shown below. The siRNAs were expressed from the rAAV vector. Thus, to generate the siRNA #1, the DNA sequence of the sense strand […] NO:777) was linked to a spacer derived from an miRNA […] ID NO:766) at the 3' end, which was then linked to the corresponding antisense sequence […] NO:778)). Thus, the non-template strand sequence used in the expression cassette for the […] NO:777) siRNA will have the following sequence (SEQ ID NO:779)): [NT] This sequence was placed downstream of an RNA polymerase III (RNA pol III) promoter in the rAAV vector. The vector also contained 6 consecutive dTs in the non-template strand following the SEQ ID NO:779 sequence to stop the transcription.

With “mm: inactive control mismatch siRNA CCUCGUCAUAAUACUGGGUUU used in HEK293 cells (chemistry not given here)”, the “expression or phosphorylation of ERK2” value in data set [1] is on record as “did not have any effect”. The “ERK2 mRNA level in the ipsilateral SCDH (in situ hybridization)” value in data set [2] is given as “did not alter; also recorded: no change”. In addition, in data set [3], the “gliosis in the spinal cord dorsal horn” value is recorded as “no evidence of gliosis” and the neuronal cell loss result was “no evidence of neuronal cell loss”. Further, the “cellular localization of GFP immunolabeling” value in data set [4] is listed as “colocalized with NeuN”. In addition, in [5], the mechanical withdrawal threshold result is on record as “No change”. In addition, the heat withdrawal latency entry in data set [6] is reported as “No change”. The “Renilla/firefly luciferase activity ratio” value in [7] is on record as “ineffective”. Besides, in data set [8], the “animals with signs of motor deficits” value is reported as “None”. Moreover, the “expression or phosphorylation of ERK1” value in [9] is “did not have any effect”.

For “siRNA #1: human ERK2 siRNA (1833-1851) GCAGGAGCUUGUGGAAAUAUU, expressed from the rAAV vector”, the ERK1 expression result in data set [10] was “without significantly changing”.

As for “siRNA #2: human ERK2 siRNA (884-902) GCUGCAUUCUGGCAGAAAUUU, expressed from the rAAV vector”, the ERK1 expression result in data set [10] is recorded as “without significantly changing”.

As to “siRNA #3: human ERK2 siRNA (357-375) GUGCUCUGCUUAUGAUAAUUU, expressed from the rAAV vector”, in data set [10], the ERK1 expression entry is “without significantly changing”.
